US20240124491A1, “METHODS AND COMPOUNDS FOR TREATING FRIEDREICH'S ATAXIA” (Design Therapeutics, Inc., priority 2021, published 2024)

tested on: human FXN; experiment: EC50 assay: FXN mRNA expression by qRT-PCR in GM15850 cells after 48 hrs compound treatment; assay type: cell-based; settings: Homo sapiens, 48 hrs incubation, hFXN expression normalized to hGAPDH (qRT-PCR), read-out: EC50 WT (nM, 48 hr)
Protocol: Cell culture: Cells were cultured in RPMI1640 medium+15% FBS. Cells were maintained at a density between 2e5/mL and 1e6/mL. Cells were centrifuged, resuspended in fresh medium, counted and plated at 150,000 cells per well in 100 uL in a non-coated, flat bottom tissue culture plate.
Compound treatment: 10 mM stock solution of FA GeneTAC was diluted 1:10 in DMSO followed by a 1:100 dilution in growth medium. Working solution was then further diluted to 10× desired final concentration of 150 nM. Compound was then diluted at a 1:3 ratio into growth medium containing 0.01% DMSO. 5-point, 3-fold dose response curve was generated. 11 μL of 1OX compound was added to wells containing 100 μL cell suspension of GM15850. 11 μL growth medium containing 0.01% DMSO was added to all wells not treated with FA GeneTAC. Cells were allowed to incubate for 48 hrs prior to cell lysis using guanidine isothiocyanate solution.
RNA isolation: Total RNA was isolated and purified in 384-well column filter plates using chaotropic salt.
qRT-PCR: qRT-PCR reactions were assembled using AgPath-ID reagents (Thermo Fisher) using 6 uL mastermix and 4 μL RNA. qRT-PCR TaqMan primer probe sets against human FXN (Assay ID Hs01075496_m1) and human GAPDH (Assay ID Hs00266705_g1) were used to measure the intended targets. qRT-PCR was run on the ThermoFisher QuantStudio 6 PRO instrument using the manufacturer's recommended cycling conditions.
Data analysis: qPCR data was analyzed using Thermo Fisher Design and Analysis software. Data was exported to Excel and hFXN expression was normalized to hGAPDH expression
A<100 nM; B is 100 nM to 500 nM; C>500 nM.

**Q.** How did the EC50 turn out when Cc1sc2c(c1C)C(c1ccc(Cl)cc1)=N[C@@H](CC(=O)N1CCC(C#CC#CC3CCN(CCOCCOCCOCCOCCNC(=O)CCNC(=O)c4nc(NC(=O)CCNC(=O)c5cc(NC(=O)c6nc(NC(=O)CCNC(=O)c7cc(NC(=O)c8nccn8C)cn7C)cn6C)cn5C)cn4C)CC3)CC1)c1nnc(C)n1-2 [Compound 60] was run?
**A.** < 100 nM

**Q.** Which EC50 does the source give for COc1ccc2c(c1)C(c1ccc(Cl)cc1)=N[C@@H](CC(=O)N1CCC(C#CC#CC3CCN(CCOCCOCCOCCOCCNC(=O)CCNC(=O)c4nc(NC(=O)CCNC(=O)c5cc(NC(=O)c6nc(NC(=O)CCNC(=O)c7cc(NC(=O)c8nccn8C)cn7C)cn6C)cn5C)cn4C)CC3)CC1)c1nnc(C)n1-2 [Compound 61] here?
**A.** < 100 nM

**Q.** Which EC50 does the source give for Cc1sc2c(c1C)C(c1ccc(Cl)cc1)=N[C@@H](CC(=O)N1CC(N3CCN(CCOCCOCCOCCOCCOCCOCCNC(=O)CCNC(=O)c4nc(NC(=O)CCNC(=O)c5cc(NC(=O)c6nc(NC(=O)CCNC(=O)c7cc(NC(=O)c8nccn8C)cn7C)cn6C)cn5C)cn4C)CC3)C1)c1nnc(C)n1-2 [Compound 62] here?
**A.** 100 to 500 nM

**Q.** Which EC50 does the source give for Cc1sc2c(c1C)C(c1ccc(Cl)cc1)=N[C@@H](CC(=O)N1CCN(C3CN(CCOCCOCCOCCOCCOCCOCCNC(=O)CCNC(=O)c4nc(NC(=O)CCNC(=O)c5cc(NC(=O)c6nc(NC(=O)CCNC(=O)c7cc(NC(=O)c8nccn8C)cn7C)cn6C)cn5C)cn4C)C3)CC1)c1nnc(C)n1-2 [Compound 63] here?
**A.** 100 to 500 nM

**Q.** How did the EC50 turn out when Cc1sc2c(c1C)C(c1ccc(Cl)cc1)=N[C@@H](CC(=O)N1CCN(C3CCN(CCOCCOCCOCCOCCC(=O)NCCCN(CCCNC(=O)CCNC(=O)c4nc(NC(=O)CCNC(=O)c5cc(NC(=O)c6nc(NC(=O)CCNC(=O)c7cc(NC(=O)c8nccn8C)cn7C)cn6C)cn5C)cn4C)CC(F)(F)F)CC3)CC1)c1nnc(C)n1-2 [Compound 68] was run?
**A.** < 100 nM

**Q.** With Cc1sc2c(c1C)C(c1ccc(Cl)cc1)=N[C@@H](CC(=O)N1CCC(N3CCN(CCOCCOCCOCCOCCC(=O)NCCCN(CCCNC(=O)CCNC(=O)c4nc(NC(=O)CCNC(=O)c5cc(NC(=O)c6nc(NC(=O)CCNC(=O)c7cc(NC(=O)c8nccn8C)cn7C)cn6C)cn5C)cn4C)CC(F)(F)F)CC3)CC1)c1nnc(C)n1-2 [Compound 69] as the compound, how does the EC50 read?
**A.** < 100 nM

**Q.** How did the EC50 turn out when Cc1sc2c(c1C)C(c1ccc(Cl)cc1)=N[C@@H](CC(=O)NC1CCN(CCOCCOCCOCCOCCC(=O)NC3(C(=O)NCCOCCOCCOCCNC(=O)CCNC(=O)c4nc(NC(=O)CCNC(=O)c5cc(NC(=O)c6nc(NC(=O)CCNC(=O)c7cc(NC(=O)c8nccn8C)cn7C)cn6C)cn5C)cn4C)CCNCC3)CC1)c1nnc(C)n1-2 [Compound 70] was run?
**A.** 100 to 500 nM

**Q.** How did the EC50 turn out when Cc1sc2c(c1C)C(c1ccc(Cl)cc1)=N[C@@H](CC(=O)NC1CCN(CCOCCOCCOCCC(=O)NC3(C(=O)NCCOCCOCCOCCOCCNC(=O)CCNC(=O)c4nc(NC(=O)CCNC(=O)c5cc(NC(=O)c6nc(NC(=O)CCNC(=O)c7cc(NC(=O)c8nccn8C)cn7C)cn6C)cn5C)cn4C)CCNCC3)CC1)c1nnc(C)n1-2 [Compound 71] was run?
**A.** 100 to 500 nM

**Q.** Cc1sc2c(c1C)C(c1ccc(Cl)cc1)=N[C@@H](CC(=O)NC1CCN(CCOCCOCCOCCC(=O)NC3(C(=O)NCCOCCOCCOCCOCCNC(=O)CCNC(=O)c4nc(NC(=O)CCNC(=O)c5cc(NC(=O)c6nc(NC(=O)CCNC(=O)c7cc(NC(=O)c8nccn8C)cn7C)cn6C)cn5C)cn4C)CCN(CC(F)(F)F)CC3)CC1)c1nnc(C)n1-2 [Compound 73] was tested. Which EC50 did it give?
**A.** 100 to 500 nM

**Q.** For COCCOCCOCCOCCOCCOCCOCCOCCOCCOCCOCCOCCOCCOCCOCCOCCC(=O)N1CCC(NC(=O)CCOCCOCCOCCN2CCC(NC(=O)C[C@@H]3N=C(c4ccc(Cl)cc4)c4c(sc(C)c4C)-n4c(C)nnc43)CC2)(C(=O)NCCOCCOCCOCCOCCNC(=O)CCNC(=O)c2nc(NC(=O)CCNC(=O)c3cc(NC(=O)c4nc(NC(=O)CCNC(=O)c5cc(NC(=O)c6nccn6C)cn5C)cn4C)cn3C)cn2C)CC1 [Compound 74], which EC50 is on record?
**A.** > 500 nM

**Q.** COCCOCCOCCOCCOCCOCCOCCOCCOCCOCCOCCC(=O)N1CCC(NC(=O)CCOCCOCCOCCN2CCC(NC(=O)C[C@@H]3N=C(c4ccc(Cl)cc4)c4c(sc(C)c4C)-n4c(C)nnc43)CC2)(C(=O)NCCOCCOCCOCCOCCNC(=O)CCNC(=O)c2nc(NC(=O)CCNC(=O)c3cc(NC(=O)c4nc(NC(=O)CCNC(=O)c5cc(NC(=O)c6nccn6C)cn5C)cn4C)cn3C)cn2C)CC1 [Compound 76] was tested. Which EC50 did it give?
**A.** 100 to 500 nM

**Q.** How did the EC50 turn out when Cc1sc2c(c1C)C(c1ccc(Cl)cc1)=N[C@@H](CC(=O)N1CCC(C#CC#CCNCCOCCOCCOCCOCCOCCOCCNC(=O)CCNC(=O)c3nc(NC(=O)CCNC(=O)c4cc(NC(=O)c5nc(NC(=O)CCNC(=O)c6cc(NC(=O)c7nccn7C)cn6C)cn5C)cn4C)cn3C)CC1)c1nnc(C)n1-2 [Compound 78] was run?
**A.** < 100 nM

**Q.** Cc1sc2c(c1C)C(c1ccc(Cl)cc1)=N[C@@H](CC(=O)N1CCC(C#CC#CCNCCOCCOCCOCCOCCNC(=O)CCNC(=O)c3nc(NC(=O)CCNC(=O)c4cc(NC(=O)c5nc(NC(=O)CCNC(=O)c6cc(NC(=O)c7nccn7C)cn6C)cn5C)cn4C)cn3C)CC1)c1nnc(C)n1-2 [Compound 79] was tested. Which EC50 did it give?
**A.** < 100 nM

**Q.** With Cc1noc2c1-c1ccccc1C(c1ccc(Cl)cc1)=N[C@H]2CC(=O)Nc1ccc(C#CC#CCNC(=O)COCCOCCOCCOCCOCCNC(=O)CCNC(=O)c2nc(NC(=O)CCNC(=O)c3cc(NC(=O)c4nc(NC(=O)CCNC(=O)c5cc(NC(=O)c6nccn6C)cn5C)cn4C)cn3C)cn2C)cc1 [Compound 84] as the compound, how does the EC50 read?
**A.** > 500 nM

**Q.** With Cc1sc2c(c1C)C(c1ccc(Cl)cc1)=N[C@@H](CC(=O)N[C@H]1CC[C@@H](N(C)CCOCCOCCOCCN3CCN(CCOCCOCCOCCNC(=O)CCNC(=O)c4nc(NC(=O)CCNC(=O)C5=CC(NC(=O)c6nc(NC(=O)CCNC(=O)c7cc(NC(=O)c8nccn8C)cn7C)cn6C)CN5C)cn4C)CC3)CC1)c1nnc(C)n1-2 (some centres unmarked) [Compound 86] as the compound, how does the EC50 read?
**A.** 100 to 500 nM

**Q.** How did the EC50 turn out when Cc1sc2c(c1C)C(c1ccc(Cl)cc1)=N[C@@H](CC(=O)N[C@H]1CC[C@@H](N(C)CCOCCOCCOCCOCCOCCOCCOCCOCCNC(=O)CCNC(=O)c3nc(NC(=O)CCNC(=O)c4cc(NC(=O)c5nc(NC(=O)CCNC(=O)c6cc(NC(=O)c7nccn7C)cn6C)cn5C)cn4C)cn3C)CC1)c1nnc(C)n1-2 [Compound 87] was run?
**A.** < 100 nM

**Q.** For Cc1sc2c(c1C)C(c1ccc(Cl)cc1)=N[C@@H](CC(=O)NC1CCN(CCOCCOCCOCCOCCOCCOCCOCCOCCNC(=O)CCNC(=O)c3nc(NC(=O)CCNC(=O)c4cc(NC(=O)c5nc(NC(=O)CCNC(=O)c6cc(NC(=O)c7nccn7C)cn6C)cn5C)cn4C)cn3C)CC1)c1nnc(C)n1-2 [Compound 88], which EC50 is on record?
**A.** < 100 nM

**Q.** For Cc1sc2c(c1C)C(c1ccc(Cl)cc1)=N[C@@H](CC(=O)NC1CCN(C3CN(CCOCCOCCOCCOCCOCCOCCOCCNC(=O)CCNC(=O)c4nc(NC(=O)CCNC(=O)c5cc(NC(=O)c6nc(NC(=O)CCNC(=O)c7cc(NC(=O)c8nccn8C)cn7C)cn6C)cn5C)cn4C)C3)CC1)c1nnc(C)n1-2 [Compound 89], which EC50 is on record?
**A.** < 100 nM

**Q.** Cc1sc2c(c1C)C(c1ccc(Cl)cc1)=N[C@@H](CC(=O)NC1CCN(C3CCN(CCOCCOCCOCCOCCOCCOCCOCCNC(=O)CCNC(=O)c4nc(NC(=O)CCNC(=O)C5=CC(NC(=O)c6nc(NC(=O)CCNC(=O)c7cc(NC(=O)c8nccn8C)cn7C)cn6C)CN5C)cn4C)CC3)CC1)c1nnc(C)n1-2 (some centres unmarked) [Compound 90] was tested. Which EC50 did it give?
**A.** 100 to 500 nM

**Q.** Which EC50 does the source give for Cc1sc2c(c1C)C(c1ccc(Cl)cc1)=N[C@@H](CC(=O)NC1CCN(CCN3CCN(CCOCCOCCOCCOCCOCCOCCNC(=O)CCNC(=O)c4nc(NC(=O)CCNC(=O)c5cc(NC(=O)c6nc(NC(=O)CCNC(=O)c7cc(NC(=O)c8nccn8C)cn7C)cn6C)cn5C)cn4C)CC3)CC1)c1nnc(C)n1-2 [Compound 91] here?
**A.** < 100 nM
